Structures can show the parent of a compound that is named as a salt.
Key:
[1] = tested on: Dengue 4 virus MY01-22713; test: High-content imaging cell-based flavivirus immunodetection (HCl-CFI) assay, Dengue 4; settings: Dengue virus, A549, 48 h, read-out: Dengue 4 virus MY01-22713 in A549 using HCl [Inhibitor/IC50] Qualified AC50, A549 cells, 48 h, viral E protein expression
[2] = tested on: Dengue 2 virus MY97-10340; test: High-content imaging cell-based flavivirus immunodetection (HCl-CFI) assay, Dengue 2; settings: Dengue virus, A549, 48 h, read-out: Dengue 2 virus MY97-10340 in A549 using HCl [Inhibitor/IC50] Qualified AC50, A549 cells, MOI 0.3, 48 h, viral E protein expression
Protocol: High-Content Imaging Cell-Based Flavivirus Immunodetection (HCl-CFI) Assay
A549 cells (7×10^3 cells per well) in a 384-well plate were infected with the DENV-2 (MY97-10340) strain at an MOI of 0.3. The cells were then treated with 3-fold, 10-point serial dilutions of test compound. After 48 h, the cells were fixed with paraformadehyde, and the viral E protein detected with 4G2 antibody labeled with Dylight™ 488 (GenScript). Cell nuclei were stained with Draq5 (Pierce/Thermo), and images were taken on the Opera imaging system (Perkin Elmer). A dose-response curve was plotted to calculate the effective concentration of compound needed to reduce expression of E protein by 50% (EC50) using GraphPad Prism.
The resulted EC50 values are summarized in Table 1 below: ±≥1 μM; 1 μM>++≥0.1 μM; 0.1 μm>+++

[3] = tested on: Dengue 3 virus MY05-34640-WT-C6/36; test: High-content imaging cell-based flavivirus immunodetection (HCl-CFI) assay, Dengue 3; settings: Dengue virus, A549, 48 h, read-out: Dengue 3 virus MY05-34640-WT-C6/36 in A549 using HCl [Inhibitor/IC50] Qualified AC50
[4] = tested on: Dengue 1 virus MY97-10245; test: High-content imaging cell-based flavivirus immunodetection (HCl-CFI) assay, Dengue 1; settings: Dengue virus, A549, 48 h, read-out: Dengue 1 virus MY97-10245 in A549 using HCl [Inhibitor/IC50] Qualified AC50

Row | SMILES | EC50 [1] [nM] | EC50 [2] [nM] | EC50 [3] [nM] | EC50 [4] [nM]
1 | CC1Cc2sc(NC(=O)Cc3ccc(S(N)(=O)=O)cc3)c(C#N)c2CN1C(C)c1ccccc1 (single isomer, unassigned) [Example 54, N-(3-cyano-6-methyl-5-(1-phenylethyl)-4,5,6,7-tetrahydrothieno[3,2-c]pyridin-2-yl)-2-(4-sulfamoylphenyl)acetamide] | < 100 | < 100 | < 100 | 100 to 1000
2 | N#Cc1c(NC(=O)Cc2ccc(S(N)(=O)=O)cc2)sc2c1CN(CC13CC(F)(C1)C3)CC2 [Example 1, N-(3-cyano-5-((3-fluorobicyclo[1.1.1]pentan-1-yl)methyl)-4,5,6,7-tetrahydrothieno[3,2-c]pyridin-2-yl)-2-(4-sulfamoylphenyl)acetamide] | 100 to 1000 | 100 to 1000 | 100 to 1000 | > 1000
3 | N#Cc1c(NC(=O)Cc2ccc(S(N)(=O)=O)cc2)sc2c1CN(CC1CC(F)(F)C1)CC2 [Example 2, N-(3-cyano-5-((3,3-difluorocyclobutyl)methyl)-4,5,6,7-tetrahydrothieno[3,2-c]pyridin-2-yl)-2-(4-sulfamoylphenyl)acetamide] | 100 to 1000 | 100 to 1000 | 100 to 1000 | > 1000
4 | CC(C1CCCCC1)N1CCc2sc(NC(=O)Cc3ccc(S(N)(=O)=O)cc3)c(C#N)c2C1 (stereo not shown) [Example 3, N-(3-cyano-5-(1-cyclohexylethyl)-4,5,6,7-tetrahydrothieno[3,2-c]pyridin-2-yl)-2-(4-sulfamoylphenyl)acetamide] | < 100 | < 100 | < 100 | 100 to 1000
5 | N#Cc1c(NC(=O)Cc2ccc(S(N)(=O)=O)cc2)sc2c1CN(CC1CCCC1)CC2 [Example 4, N-(3-cyano-5-(cyclopentylmethyl)-4,5,6,7-tetrahydrothieno[3,2-c]pyridin-2-yl)-2-(4-sulfamoylphenyl)acetamide] | < 100 | < 100 | 100 to 1000 | 100 to 1000
6 | N#Cc1c(NC(=O)Cc2ccc(S(N)(=O)=O)cc2)sc2c1CN(Cc1cccc(F)c1)CC2 [Example 5, N-(3-cyano-5-(3-fluorobenzyl)-4,5,6,7-tetrahydrothieno[3,2-c]pyridin-2-yl)-2-(4-sulfamoylphenyl)acetamide] | < 100 | < 100 | < 100 | 100 to 1000
7 | N#Cc1c(NC(=O)Cc2ccc(S(N)(=O)=O)cc2)sc2c1CN(CC1CCCCC1)CC2 [Example 6, N-(3-cyano-5-(cyclohexylmethyl)-4,5,6,7-tetrahydrothieno[3,2-c]pyridin-2-yl)-2-(4-sulfamoylphenyl)acetamide] | < 100 | < 100 | < 100 | 100 to 1000
8 | COc1cc(CC(=O)Nc2sc3c(c2C#N)CN(CC2CCCCC2)CC3)ccc1S(N)(=O)=O [Example 7, N-(3-cyano-5-(cyclohexylmethyl)-4,5,6,7-tetrahydrothieno[3,2-c]pyridin-2-yl)-2-(3-methoxy-4-sulfamoylphenyl)acetamide] | < 100 | < 100 | < 100 | < 100
9 | CC(O)(c1ccc(CC(=O)Nc2sc3c(c2C#N)CN(CC2CCCCC2)CC3)cc1)C(F)(F)F (stereo not shown) [Example 8, N-(3-cyano-5-(cyclohexylmethyl)-4,5,6,7-tetrahydrothieno[3,2-c]pyridin-2-yl)-2-(4-(1,1,1-trifluoro-2-hydroxypropan-2-yl)phenyl)acetamide] | 100 to 1000 | 100 to 1000 | 100 to 1000 | > 1000
10 | N#Cc1c(NC(=O)Cc2ccc(S(N)(=O)=O)c(F)c2)sc2c1CN(CC1CCCCC1)CC2 [Example 9, N-(3-cyano-5-(cyclohexylmethyl)-4,5,6,7-tetrahydrothieno[3,2-c]pyridin-2-yl)-2-(3-fluoro-4-sulfamoylphenyl)acetamide] | < 100 | < 100 | < 100 | 100 to 1000
11 | COc1cc(CC(=O)Nc2sc3c(c2C#N)CN(CC2CCCCC2)CC3)ccc1S(C)(=O)=O [Example 10, N-(3-cyano-5-(cyclohexylmethyl)-4,5,6,7-tetrahydrothieno[3,2-c]pyridin-2-yl)-2-(3-methoxy-4-(methylsulfonyl)phenyl)acetamide] | < 100 | < 100 | < 100 | 100 to 1000
12 | N#Cc1c(NC(=O)Cc2ccc(S(=O)(=O)C(F)F)cc2)sc2c1CN(CC1CCCCC1)CC2 [Example 11, N-(3-cyano-5-(cyclohexylmethyl)-4,5,6,7-tetrahydrothieno[3,2-c]pyridin-2-yl)-2-(4-((difluoromethyl)sulfonyl)phenyl)acetamide] | < 100 | 100 to 1000 | < 100 | < 100
13 | CCOc1cc(CC(=O)Nc2sc3c(c2C#N)CN(CC2CCCCC2)CC3)ccc1S(N)(=O)=O [Example 12, N-(3-cyano-5-(cyclohexylmethyl)-4,5,6,7-tetrahydrothieno[3,2-c]pyridin-2-yl)-2-(3-ethoxy-4-sulfamoylphenyl)acetamide] | < 100 | < 100 | < 100 | < 100
14 | CS(=O)(=O)Nc1ccc(CC(=O)Nc2sc3c(c2C#N)CN(CC2CCCCC2)CC3)cc1 [Example 13, N-(3-cyano-5-(cyclohexylmethyl)-4,5,6,7-tetrahydrothieno[3,2-c]pyridin-2-yl)-2-(4-(methylsulfonamido)phenyl)acetamide] | 100 to 1000 | 100 to 1000 | 100 to 1000 | 100 to 1000
15 | CN(C)S(=O)(=O)c1ccc(CC(=O)Nc2sc3c(c2C#N)CN(CC2CCCCC2)CC3)cc1 [Example 14, N-(3-cyano-5-(cyclohexylmethyl)-4,5,6,7-tetrahydrothieno[3,2-c]pyridin-2-yl)-2-(4-(N,N-dimethylsulfamoyl)phenyl)acetamide] | 100 to 1000 | 100 to 1000 | 100 to 1000 | 100 to 1000
16 | COCCOc1cccc(CC(=O)Nc2sc3c(c2C#N)CN(CC2CCCCC2)CC3)c1 [Example 15, N-(3-cyano-5-(cyclohexylmethyl)-4,5,6,7-tetrahydrothieno[3,2-c]pyridin-2-yl)-2-(3-(2-methoxyethoxy)phenyl)acetamide] | 100 to 1000 | 100 to 1000 | 100 to 1000 | 100 to 1000
17 | N#Cc1c(NC(=O)Cc2ccc3c(c2)CNS3(=O)=O)sc2c1CN(CC1CCCCC1)CC2 [Example 16, N-(3-cyano-5-(cyclohexylmethyl)-4,5,6,7-tetrahydrothieno[3,2-c]pyridin-2-yl)-2-(1,1-dioxido-2,3-dihydrobenzo[d]isothiazol-5-yl)acetamide] | < 100 | < 100 | < 100 | 100 to 1000
18 | N#Cc1c(NC(=O)Cc2ccc(CS(N)(=O)=O)cc2)sc2c1CN(CC1CCCCC1)CC2 [Example 17, N-(3-cyano-5-(cyclohexylmethyl)-4,5,6,7-tetrahydrothieno[3,2-c]pyridin-2-yl)-2-(4-(sulfamoylmethyl)phenyl)acetamide] | < 100 | < 100 | < 100 | 100 to 1000
19 | N#Cc1c(NC(=O)Cc2ccc3c(c2)CCS3(=O)=O)sc2c1CN(CC1CCCCC1)CC2 [Example 18, N-(3-cyano-5-(cyclohexylmethyl)-4,5,6,7-tetrahydrothieno[3,2-c]pyridin-2-yl)-2-(1,1-dioxido-2,3-dihydrobenzo[b]thiophen-5-yl)acetamide] | < 100 | < 100 | < 100 | < 100
20 | COc1cc(S(N)(=O)=O)ccc1CC(=O)Nc1sc2c(c1C#N)CN(CC1CCCCC1)CC2 [Example 19, N-(3-cyano-5-(cyclohexylmethyl)-4,5,6,7-tetrahydrothieno[3,2-c]pyridin-2-yl)-2-(2-methoxy-4-sulfamoylphenyl)acetamide] | < 100 | < 100 | < 100 | < 100
21 | N#Cc1c(NC(=O)Cc2ccc3c(c2)CNC3)sc2c1CN(CC1CCCCC1)CC2 [Example 20, N-(3-cyano-5-(cyclohexylmethyl)-4,5,6,7-tetrahydrothieno[3,2-c]pyridin-2-yl)-2-(isoindolin-5-yl)acetamide] | > 1000 | 100 to 1000 | > 1000 | > 1000
22 | CCOc1cc(CC(=O)Nc2sc3c(c2C#N)CN(Cc2cccc(F)c2)CC3)ccc1S(N)(=O)=O [Example 21, N-(3-cyano-5-(3-fluorobenzyl)-4,5,6,7-tetrahydrothieno[3,2-c]pyridin-2-yl)-2-(3-ethoxy-4-sulfamoylphenyl)acetamide] | < 100 | < 100 | < 100 | < 100
23 | COC(=O)c1ccccc1CN1CCc2c(sc(NC(=O)Cc3ccc(S(N)(=O)=O)cc3)c2C#N)C1 [Example 91, Methyl-2-((3-cyano-2-(2-(4-sulfamoylphenyl)acetamido)-4,5-dihydrothieno[2,3-c]pyridin-6-(71-1)-yl)methyl)benzoate hydrochloride] | 100 to 1000 | > 1000 | > 1000 | –

Reference: patent US12012417B2, “N-substituted tetrahydrothienopyridine derivatives and uses thereof” (NOVARTIS AG, priority 2018, dated 2024)
